Tested on: dimethylbenzanthracene-induced rat myelodysplastic syndrome (MDS)
Test: Dimethylbenzanthracene-induced rat myelodysplastic syndrome (MDS) model
Type: in vivo, SD rat
Conditions: p.o., q2d×21 d; for average WBCB value of bone marrow: MDS model group 16.89±2.75; for average PLT value of bone marrow: MDS model group 52±2.49
Description: Multiple human-derived rat MDS model is used for evaluating the in vivo anti-tumor effect of compound 2 alone.
The rat myelodysplastic syndrome (MDS) model is constructed using a chemical mutagenic agent dimethylbenzanthracene (DMBA). in the rat MDS model, the changes of myelogram and hemogram are similar to that of human myelodysplastic syndromes, and it is confirmed that it can be used for the anti-MDS effect study of drugs. DMBA is administered at 50 mg/kg, i.v. Following the once per week regimen for 4 weeks totally to establish the rat MDS model. One week after the end of DMBA administration (day 28), peripheral blood is collected from the caudal vein for routine blood test to determine whether the model is established successfully.
The animals are randomly divided into groups according to the PLT level on day 28, wherein a vehicle control group (Vehicle), two dosage groups of compound 2 (10 mg/kg) and compound 2 (30 mg/kg) (corresponding to the number 23 regimen in table 3), and healthy control group (naive) are totally set, each group has 5 animals.
Compound 2 is administered following 10 mg/kg or 30 mg/kg, p.o., q2d×21 d regimens. After the administration, the peripheral blood and bone marrow cells from each group of animals for routine blood analysis.

CCN1[C@@H](C(=O)NC23CCC(C(=O)O)(CC2)CC3)[C@H](c2cccc(Cl)c2F)[C@]2(C(=O)Nc3cc(Cl)ccc32)C12CCCCC2 [Compound 2]
average WBCB value of bone marrow (10 mg/kg): 47.5±10.13 cells/μl
average PLT value of bone marrow (10 mg/kg): 116±9.35 cells/μl
average WBCB value of bone marrow (30 mg/kg): 62.53±13.08 cells/μl
average PLT value of bone marrow (30 mg/kg): 124.2±23.8 cells/μl
